What follows are molecules tested against T1, human PTHR1 receptor (Homo sapiens, UniProt Q03431) (assay: Competitive antagonist binding assay for hPTH-R1 (radioactive competition binding, SPA beads)). Settings: human PTHR1 membranes, [125I]-[Nle8,18,Tyr34]-PTH(1-34) 0.2 nM, 90 minutes at room temperature; read-out: hPTHR1 Ki.
T1 construct: purchased Eurofins HTS030M
T1 sequence (Q03431 27-593): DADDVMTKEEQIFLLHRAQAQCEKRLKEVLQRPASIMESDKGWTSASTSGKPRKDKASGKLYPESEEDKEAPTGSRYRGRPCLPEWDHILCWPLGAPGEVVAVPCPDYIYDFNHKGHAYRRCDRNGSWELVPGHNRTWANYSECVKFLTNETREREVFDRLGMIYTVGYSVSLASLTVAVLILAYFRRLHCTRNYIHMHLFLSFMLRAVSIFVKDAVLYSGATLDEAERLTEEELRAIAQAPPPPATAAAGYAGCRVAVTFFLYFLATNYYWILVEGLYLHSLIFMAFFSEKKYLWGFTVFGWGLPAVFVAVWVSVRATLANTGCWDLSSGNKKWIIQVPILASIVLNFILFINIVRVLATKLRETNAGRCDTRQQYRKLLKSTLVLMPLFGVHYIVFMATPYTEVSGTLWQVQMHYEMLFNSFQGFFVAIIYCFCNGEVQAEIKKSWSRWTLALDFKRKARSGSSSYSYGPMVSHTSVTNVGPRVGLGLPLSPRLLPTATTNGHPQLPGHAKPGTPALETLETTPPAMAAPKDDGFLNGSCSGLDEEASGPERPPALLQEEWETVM
How it was run: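 Displacement of 0.2 nM radioiodinated [Nle8,18,Tyr34]-PTH(1-34) from membrane-bound human PTHR1 measured by scintillation proximity after 90 min at room temperature. Compounds typically 0-10,000 nM final, pH 7.4 HEPES/Mg/Ca buffer with BSA and detergent. Ki calculated from competition data.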

Row | Ki [nM] | Structure (SMILES)
1 | < 100 | CCN1C(=O)N(c2c(F)cc(NCCNCCO)cc2F)c2cc(C#N)cc(F)c2-c2cc(Cl)cnc21 [1-100, 4-chloro-10-[2,6-difluoro-4-({2-[(2-hydroxyethyl)amino]ethyl}amino)phenyl]-8-ethyl-15-fluoro-9-oxo-6,8,10-triazatricyclo[9.4.0.0^2,7]pentadeca-1(11),2(7),3,5,12,14-hexaene-13-carbonitrile]
2 | < 100 | CCN1C(=O)N(c2c(F)cc(NCCNCCCC(=O)O)cc2F)c2cc(C#N)cc(F)c2-c2cc(Cl)cnc21 [1-101, 4-({2-[(4-{4-chloro-13-cyano-8-ethyl-15-fluoro-9-oxo-6,8,10-triazatricyclo[9.4.0.0^2,7]pentadeca-1(11),2(7),3,5,12,14-hexaen-10-yl}-3,5-difluorophenyl)amino]ethyl}amino)butanoic acid]
3 | < 100 | CCN1C(=O)N(c2c(F)cc(NCCNC)cc2F)c2cc(C#N)cc(F)c2-c2cc(F)cnc21 [1-102, 10-(2,6-difluoro-4-{[2-(methylamino)ethyl]amino}phenyl)-8-ethyl-4,15-difluoro-9-oxo-6,8,10-triazatricyclo[9.4.0.0^2,7]pentadeca-1(11),2(7),3,5,12,14-hexaene-13-carbonitrile]
4 | < 100 | CCN1C(=O)N(c2c(F)cc(NCCNCCO)cc2F)c2cc(C#N)cc(F)c2-c2cc(F)cnc21 [1-103, 10-[2,6-difluoro-4-({2-[(2-hydroxyethyl)amino]ethyl}amino)phenyl]-8-ethyl-4,15-difluoro-9-oxo-6,8,10-triazatricyclo[9.4.0.0^2,7]pentadeca-1(11),2(7),3,5,12,14-hexaene-13-carbonitrile]
5 | < 100 | CCN1C(=O)N(c2c(F)cc(NCCNCCCC(=O)O)cc2F)c2cc(C#N)cc(F)c2-c2cc(F)cnc21 [1-104, 4-({2-[(4-{13-cyano-8-ethyl-4,15-difluoro-9-oxo-6,8,10-triazatricyclo[9.4.0.0^2,7]pentadeca-1(11),2(7),3,5,12,14-hexaen-10-yl}-3,5-difluorophenyl)amino]ethyl}amino)butanoic acid]
6 | < 100 | CNCCNc1cc(F)c(N2C(=O)N(C(C)C)c3ncc(F)cc3-c3ccc(Cl)cc32)c(F)c1 [1-105, 13-chloro-10-(2,6-difluoro-4-{[2-(methylamino)ethyl]amino}phenyl)-4-fluoro-8-(propan-2-yl)-6,8,10-triazatricyclo[9.4.0.0^2,7]pentadeca-1(11),2(7),3,5,12,14-hexaen-9-one]
7 | < 100 | CC(C)N1C(=O)N(c2c(F)cc(NCCNCCO)cc2F)c2cc(Cl)ccc2-c2cc(F)cnc21 [1-106, 13-chloro-10-[2,6-difluoro-4-({2-[(2-hydroxyethyl)amino]ethyl}amino)phenyl]-4-fluoro-8-(propan-2-yl)-6,8,10-triazatricyclo[9.4.0.0^2,7]pentadeca-1(11),2(7),3,5,12,14-hexaen-9-one]
8 | < 100 | CNCCNc1cc(F)c(N2C(=O)N(C(C)C)c3ncc(F)cc3-c3c(F)cc(C#N)cc32)c(F)c1 [1-107, 10-(2,6-difluoro-4-{[2-(methylamino)ethyl]amino}phenyl)-4,15-difluoro-9-oxo-8-(propan-2-yl)-6,8,10-triazatricyclo[9.4.0.0^2,7]pentadeca-1(11),2(7),3,5,12,14-hexaene-13-carbonitrile]
9 | < 100 | CC(C)N1C(=O)N(c2c(F)cc(NCCNCCO)cc2F)c2cc(C#N)cc(F)c2-c2cc(F)cnc21 [1-108, 10-[2,6-difluoro-4-({2-[(2-hydroxyethyl)amino]ethyl}amino)phenyl]-4,15-difluoro-9-oxo-8-(propan-2-yl)-6,8,10-triazatricyclo[9.4.0.0^2,7]pentadeca-1(11),2(7),3,5,12,14-hexaene-13-carbonitrile]
10 | < 100 | CNCCNc1cc(F)c(N2C(=O)N(C)c3ncc(F)cc3-c3c(F)cc(C#N)cc32)c(F)c1 [1-109, 10-(2,6-difluoro-4-{[2-(methylamino)ethyl]amino}phenyl)-4,15-difluoro-8-methyl-9-oxo-6,8,10-triazatricyclo[9.4.0.0^2,7]pentadeca-1(11),2(7),3,5,12,14-hexaene-13-carbonitrile]
11 | < 100 | CN1C(=O)N(c2c(F)cc(NCCNCCO)cc2F)c2cc(C#N)cc(F)c2-c2cc(F)cnc21 [1-110, 10-[2,6-difluoro-4-({2-[(2-hydroxyethyl)amino]ethyl}amino)phenyl]-4,15-difluoro-8-methyl-9-oxo-6,8,10-triazatricyclo[9.4.0.0^2,7]pentadeca-1(11),2(7),3,5,12,14-hexaene-13-carbonitrile]
12 | < 100 | CNCCNc1cc(F)c(N2C(=O)N(C)c3ncc(F)cc3-c3c(C)cc(C#N)cc32)c(F)c1 [1-111, 10-(2,6-difluoro-4-{[2-(methylamino)ethyl]amino}phenyl)-4-fluoro-8,15-dimethyl-9-oxo-6,8,10-triazatricyclo[9.4.0.0^2,7]pentadeca-1(11),2(7),3,5,12,14-hexaene-13-carbonitrile]
13 | < 100 | Cc1cc(C#N)cc2c1-c1cc(F)cnc1N(C)C(=O)N2c1c(F)cc(NCCNCCO)cc1F [1-112, 10-[2,6-difluoro-4-({2-[(2-hydroxyethyl)amino]ethyl}amino)phenyl]-4-fluoro-8,15-dimethyl-9-oxo-6,8,10-triazatricyclo[9.4.0.0^2,7]pentadeca-1(11),2(7),3,5,12,14-hexaene-13-carbonitrile]
14 | < 100 | CNCCNc1cc(F)c(N2C(=O)N(C(C)C)c3ncc(F)cc3-c3c(F)cc(Cl)cc32)c(F)c1 [1-113, 13-chloro-10-(2,6-difluoro-4-{[2-(methylamino)ethyl]amino}phenyl)-4,15-difluoro-8-(propan-2-yl)-6,8,10-triazatricyclo[9.4.0.0^2,7]pentadeca-1(11),2(7),3,5,12,14-hexaen-9-one]
15 | < 100 | CC(C)N1C(=O)N(c2c(F)cc(NCCNCCO)cc2F)c2cc(Cl)cc(F)c2-c2cc(F)cnc21 [1-114, 13-chloro-10-[2,6-difluoro-4-({2-[(2-hydroxyethyl)amino]ethyl}amino)phenyl]-4,15-difluoro-8-(propan-2-yl)-6,8,10-triazatricyclo[9.4.0.0^2,7]pentadeca-1(11),2(7),3,5,12,14-hexaen-9-one]
16 | < 100 | CNCCNc1cc(F)c(N2C(=O)N(C)c3ncc(Cl)cc3-c3c(F)cc(C#N)cc32)c(F)c1 [1-115, 4-chloro-10-(2,6-difluoro-4-{[2-(methylamino)ethyl]amino}phenyl)-15-fluoro-8-methyl-9-oxo-6,8,10-triazatricyclo[9.4.0.0^2,7]pentadeca-1(11),2(7),3,5,12,14-hexaene-13-carbonitrile]
17 | < 100 | CN1C(=O)N(c2c(F)cc(NCCNCCO)cc2F)c2cc(C#N)cc(F)c2-c2cc(Cl)cnc21 [1-116, 4-chloro-10-[2,6-difluoro-4-({2-[(2-hydroxyethyl)amino]ethyl}amino)phenyl]-15-fluoro-8-methyl-9-oxo-6,8,10-triazatricyclo[9.4.0.0^2,7]pentadeca-1(11),2(7),3,5,12,14-hexaene-13-carbonitrile]
18 | < 100 | CCCN1C(=O)N(c2c(F)cc(NCCNC)cc2F)c2cc(C#N)ccc2-c2cc(F)cnc21 [1-117, 10-(2,6-difluoro-4-{[2-(methylamino)ethyl]amino}phenyl)-4-fluoro-9-oxo-8-propyl-6,8,10-triazatricyclo[9.4.0.0^2,7]pentadeca-1(11),2(7),3,5,12,14-hexaene-13-carbonitrile]

Reference: patent US20230159532A1, “PARATHYROID HORMONE (PTH) RECEPTOR ANTAGONISTS AND USES THEREOF” (Crinetics Pharmaceuticals, Inc., priority 2021, published 2023)
